Results published in article PMC6058497 (Drug Delivery, 2018).
≈ marks a conversion by molar mass, not a printed value. Like-named read-outs stand apart in the source and are kept apart here. Each block holds one compound with its values, some of them ahead of it.

How the values were obtained:
U-87 MG cells = experiment: MTT cytotoxicity test, U-87 MG; type: cell-based, human
Experimental: (§1) Cancer cell lines U-87 MG (glioblastoma) and MCF-7 (breast cancer) were obtained from the ATCC (ATCC number HTB-14 and HTB-22, respectively). Immortalized human fibroblasts used as normal cells were kindly provided by Alexander G. Shilov (Institute of Cytology and Genetics SB RAS). The cells were maintained in DMEM plus 10% FBS, under a temperature of 37 °C, atmosphere of 5% of CO2 and 90% humidity.
(§2) MTT test was performed according to a standard procedure (Mosmann, [1983]). Cells were seeded in a 96-well plate at a density of 5 × 10^3 cells/well and after 24 h of adherence, the cells were treated with different concentration of test compounds and incubated for 48 h at 37 °C in an atmosphere of 5% CO2 in air. Untreated cells were used as negative control and doxorubicin was used as a positive control. After the incubation period, 10 μL MTT solution (3 mg/mL of PBS) was added to each well followed by incubation for 3 h under the condition mentioned above. Then, the MTT-containing medium was removed and the formazan crystals were dissolved with 100 μL of isopropanol. Absorbance was measured at 630 and 492 nm using a microplate reader (Thermo Scientific, Waltham, MA). The cell viability percentage was calculated using the following formula: Viability (%)=OD (treated cells)/OD (untreated cells) × 100, where OD was an optical density of solution.

[1] = Solubility determination in distilled water (HPLC); type: physicochemical; details: +37 °C
Experimental: The amount of Cur was determined by using a high performance liquid chromatography (HPLC) system (Agilent 1200, Santa Clara, CA) with column Zorbax Eclipse XDB-C18, 4.6 × 50 mm at +30 °C and diode-array detector. Acetonitrile–acetate buffer (55:45) was used as eluent (pH = 3.4) with flow rate of 1.0 mL/min, and detection wavelength was 430 nm. […] At last, sample solutions were filtered and analyzed by HPLC.

[2] = Oral pharmacokinetic (bioavailability) study in rats; type: in vivo; details: male, Sprague Dawley; rat plasma, single oral dose 150 mg/kg Cur
Experimental: The pharmacokinetic study was carried out in male Sprague Dawley rats (10 weeks of age, 250–260 g body weight, provided by the Zhejiang Academy of Medical Science, Hangzhou, China). All animal (used in this experiment) handling procedures were performed in strict compliance with the PR China legislation for the use and care of laboratory animals and were approved by the University Committee for Animal Experiments. The animals were fasted overnight (12 h) and had free access to drinking water throughout the experimental period. […] To evaluate the concentration of Cur in plasma, blood was collected into heparinized Eppendroff tubes at different time points: 0.083, 0.25, 0.5, 1, 2, 4, 6, 8, 12, and 24 h post-dosing and centrifuged (Sigma Laboratory Centrifuge, Model 3K-30, Osterode am Harz, Germany) at 9391 × g for 5 min to separate the plasma. The plasma samples were stored at –80 °C until further analysis.
A 100 μL aliquot of plasma was transferred to a clean microcentrifuge tube and next treated with 100 μL of a solution containing 1000 U of β-glucuronidase in 0.1 M phosphate buffer (pH 6.8). The resulting mixture was then thoroughly vortexed and incubated at 37 °C for 1 h to hydrolyze the conjugated Cur. After incubation, 0.1 mL acetonitrile was added to 0.1 mL of plasma and centrifuged (Sigma Laboratory Centrifuge, Model3K-30, Osterode am Harz, Germany) at 9391 × g for 15 min, and then the supernatant was subjected to be analyzed by HPLC.
Standard pharmacokinetic parameters for free Cur and Cur SDs were calculated by linear trapezoidal method using the PKSolver, a freely available menu-driven add-in program for Microsoft Excel. The results were presented as mean ± standard error of the mean (SEM). One-way analysis of variance (ANOVA) was followed by Dunnett’s test for multiple comparisons statistical evaluation. p Values <.05 were considered significant.

[3] = parameters: method as in Priyadarsini, 2014; details: acidic and neutral pH; ref Priyadarsini, 2014; cited from earlier work
[4] = cited from earlier work
MCF-7 cells = experiment: MTT cytotoxicity test, MCF-7; type: cell-based, human; details: for Viability: 48 h
Experimental: as §1, §2

[5] = Molecular weight distribution by gel permeation chromatography; type: physicochemical; details: dissolved in water
Experimental: The molecular weight distribution (MWD) of the samples was investigated by gel permeation chromatography (GPC) on the Agilent 1200 chromatograph with column PL aquel-OH 40 (Santa Clara, CA), 300 × 7.5 mm column at 30 °C with refractometric detector. The solvent used was 0.02% NaN3 aqueous solution and flow rate was 1 mL/min. The calibration was performed by standard dextrans with molecular weights of 1, 5, 12, 25, 80, 150, 270, and 410 kDa. Agilent GPC data analysis program was used to process the results (Santa Clara, CA).

[6] = tested on: immortalized human fibroblasts; experiment: MTT cytotoxicity test, immortalized human fibroblasts; type: cell-based; details: for Viability: 48 h
Experimental: as §1, §2

solubility at 12 h [1]: 1.73 µg/mL (≈ 4.7 µM)
AUC(0-inf) [2]: 14300 ± 720 ng·h/mL
AUC(0-t) [2]: 12100 ± 360 ng·h/mL
Cmax [2]: 1480 ± 30 ng/mL
Tmax [2]: 0.25 h
half-life [2]: 5.07 ± 0.41 h
Compound: COc1cc(/C=C/C(=O)CC(=O)/C=C/c2ccc(O)c(OC)c2)ccc1O [Free Cur, Curcumin]
Mean cell survival (U-87 MG cells; Cur concentration range 25–100 μM, 48 h): above 80%
Solubility in water [3]: practically insoluble

Compound: CC1(C)[C@@H](O[C@H]2O[C@H](C(=O)O)[C@@H](O)[C@H](O)[C@H]2O[C@@H]2O[C@H](C(=O)O)[C@@H](O)[C@H](O)[C@H]2O)CC[C@]2(C)[C@H]3C(=O)C=C4[C@@H]5C[C@@](C)(C(=O)O)CC[C@]5(C)CC[C@@]4(C)[C@]3(C)CC[C@@H]12 [GA, Glycyrrhizic acid]
Molecular weight of micelles formed in water ([4]; dissolved in water, ref Dushkin & Tolstikova, 2012): 66 kDa
Critical micelle concentration ([4]; ref Kornievskaya et al., 2007, Polyakov, 2011): ~1 mM

Molecular weight of micelles formed in water [5]: 85–90 kDa
Compound: CC1(C)[C@@H](O[C@H]2O[C@H](C(=O)[O-])[C@@H](O)[C@H](O)[C@H]2O[C@@H]2O[C@H](C(=O)O)[C@@H](O)[C@H](O)[C@H]2O)CC[C@]2(C)[C@H]3C(=O)C=C4[C@@H]5C[C@@](C)(C(=O)[O-])CC[C@]5(C)CC[C@@]4(C)[C@]3(C)CC[C@@H]12.[Na+].[Na+] [Na2GA, disodium glycyrrhizin]
Viability (U-87 MG cells; 25 μM, 48 h): 96.6 ± 2.39%
Viability (U-87 MG cells; 50 μM, 48 h): 95.9 ± 1.16%
Viability (U-87 MG cells; 100 μM, 48 h): 92.2 ± 2.75%
Viability (U-87 MG cells; 200 μM, 48 h): 92.2 ± 2.63%
Viability (U-87 MG cells; 400 μM, 48 h): 92.9 ± 1.65%
Cytotoxicity (U-87 MG cells; 25–400 μM): no cytotoxicity
Viability (MCF-7 cells; MCF-7, 25 μM): 98.2 ± 2.13%
Viability (MCF-7 cells; MCF-7, 50 μM): 97.8 ± 3.33%
Viability (MCF-7 cells; MCF-7, 100 μM): 98.2 ± 0.41%
Viability (MCF-7 cells; MCF-7, 200 μM): 98.7 ± 1.59%
Viability (MCF-7 cells; MCF-7, 400 μM): 99.6 ± 1.34%
Cytotoxicity (MCF-7 cells; MCF-7, 25–400 μM): no cytotoxicity
Viability ([6]; 25 μM): 96.2 ± 2.78%
Viability ([6]; 50 μM): 97.3 ± 1.73%
Viability ([6]; 100 μM): 98.8 ± 4.18%
Viability ([6]; 200 μM): 96.0 ± 1.66%
Viability ([6]; 400 μM): 98.3 ± 0.90%
Cytotoxicity ([6]; 25–400 μM): no cytotoxicity
